Laboratory results as given in patent US12357581B2, “Nanoparticles comprising copolymeric or homopolymeric compounds which comprise cyanoacrylate subunits” (SINTEF TTO AS, priority 2019, dated 2025).
“Also recorded” adds a separate entry of the source.

Tests used:
[1] = Solubility of API/dyes with ACA monomers (visual); assay type: physicochemical; conditions: typically 5.0 mg in 100 ul monomer, 24 h; for Solubility of CBZ in the monomer (blend): cabazitaxel
Excerpt: Solubility and degree of polymerization were monitored visually.
Where the result is given as ‘soluble’, the API was soluble in the choose monomer with no visual residue, and there can be used as a combination to prepare API loaded nanoparticles. If the results are given as insoluble or partially, it is an indication that this combination cannot be used to prepared API loaded nanoparticles.

[2] = system: IMR-90; test: Alcohol toxicity, MTT cell viability assay, IMR-90; assay type: cell-based, human; conditions: 24 h, vs untreated control
Experimental: (§1) MTT cell viability assay.
(§2) Alcohol toxicity is disclosed in Table 3: Alcohol toxicity was assessed by exposure of the cells to a given concentration of alcohol to a limit of 3 wt %. Cell activity was determined after 24 h and compared to an untreated control. Data is reported as percentage remaining cell activity (vs control) in 3% alcohol in three individual cell lines. The greater the percentage of remaining activity, the lower the toxicity of the alcohol to the cell line. Thus, Hep G2 cells exposed to 3 wt % 2-ethylhexanol retained 91.2% activity, whereas Hep G2 cells exposed to 3 wt % 2-ethylbutanol retained only 74.6% activity. Thus 2-ethylhexanol is less toxic to Hep G2 cells than 2-ethylbutanol.

[3] = system: Hep G2; test: Alcohol toxicity, MTT cell viability assay, Hep G2; assay type: cell-based, human; conditions: 24 h, vs untreated control
Experimental: as §1, §2

[4] = system: LLC-PK1; test: Alcohol toxicity, MTT cell viability assay, LLC-PK1; assay type: cell-based, porcine; conditions: 24 h, vs untreated control
Experimental: as §1, §2

[5] = system: Hep G2 cell line and LLC-PK1
Experimental: Cell lines: The cell lines were used for determining alcohol cytotoxicity Hep G2 (Human liver cancer cell line), LLC-PK1 (Porcine kidney cell line) and IMR-90 (Human lung fibroblast cell line). All medium was fortified with 10% (w/v) fetal calf serum albumin (Sigma) and 100 units/ml penicillin/streptomycin (PenStrep®, Sigma). All cell lines were obtained from ATCC and were routinely tested for mycoplasma. Cells growing in 24- or 96-well plates were incubated with serial dilutions of the alcohol for 24 h, at 37° C. in an atmosphere of 5% CO2. The toxicity was assessed the commonly used MTT (3-(4,5-dimethylthiazol-2-yl)-2,5-diphenyltetrazolium bromide) cell viability assay.
MTT cell viability assay. The cells were incubated for 24 with the different nanoparticles/substances. The cell medium was then aspirated and exchanged with 100 μl of medium containing a final concentration of 250 μg MTT/ml. The incubation was continued for 3 h at 37° C. for formation of the formazan-particles, which were dissolved in DMSO with 1% (v/v) NH4Cl. The absorbance was read in a plate reader (Biosys Ltd, Essex, UK) at 570 nm, and background from absorbance at 650 nm was subtracted.

Molecule | Solubility of CBZ in the monomer (blend) [1] | Solubility of Alpelisib in the monomer (blend) [1] | Solubility of Mupirocin in the monomer (blend) [1] | Solubility of Oxaliplatin in the monomer (blend) [1] | Cell activity remaining at 3.00 wt % alcohol (%), IMR-90 [2] | Cell activity remaining at 3.00 wt % alcohol (%), Hep G2 [3] | Cell activity remaining at 3.00 wt % alcohol (%), LLC-PK1 [4] | also measured
C=C(C#N)C(=O)OC(CC)CC [3-PCA, 3-pentyl cyanoacrylate] | Soluble | Soluble | Soluble; also recorded: able to dissolve | Insoluble | – | – | – | –
C=C(C#N)C(=O)OC(C)CCCCC (stereo not drawn) [2-HPCA, 2-heptyl cyanoacrylate] | Soluble | Soluble | Soluble; also recorded: able to dissolve | Insoluble | – | – | – | –
OCCc1ccccc1 [2-phenylethanol] | – | – | – | – | 0.6% | 0.9% | 1.1% | Toxicity at 3% alcohol [5]: significant toxicity
C=C(C#N)C(=O)OCCCCC [1-PCA, 1-pentyl cyanoacrylate] | Soluble | Soluble | Insoluble | Insoluble | – | – | – | –
C=C(C#N)C(=O)OCC(CC)CC [EBCA (control), 2-ethylbutyl cyanoacrylate, reference compound] | – | – | – | – | – | – | – | Solubility of Belinostat in the monomer (blend) [1]: not
C=C(C#N)C(=O)OCCC(C)C [3-MBCA, 3-methylbutyl cyanoacrylate] | Soluble | Soluble | Insoluble | Insoluble | – | – | – | –
CCCCCCCO [1-heptanol] | – | – | – | – | 58.3% | 72.3% | 61.8% | –
CCC(O)CC [3-pentanol] | – | – | – | – | 84.6% | 89.7% | 78.6% | –
CCC(CC)CO [2-ethylbutanol (control), 2-ethylbutanol, reference compound] | – | – | – | – | 69.1% | 74.6% | 86.2% | –
C=C(C#N)C(=O)OCCCCCCC [1-HPCA, 1-heptyl cyanoacrylate] | Soluble | Soluble | Insoluble | Insoluble | – | – | – | Solubility of Belinostat in the monomer (blend) [1]: Soluble; Solubility of Docetaxil in the monomer (blend) [1]: Soluble
CCCCC(CC)CO (stereo not drawn) [2-ethylhexanol] | – | – | – | – | 7.9% | 91.2% | 79.8% | –
C=C(C#N)C(=O)OCCCCCCCC [OCA (control), 1-octyl cyanoacrylate, reference compound] | – | – | insoluble | – | – | – | – | –
1-butanol [1-butanol (control), reference compound] | – | – | – | – | 59.7% | 61.8% | 81.8% | –
CCCCC(O)CC (stereo not drawn) [3-heptanol] | – | – | – | – | 81.7% | 81.4% | 96.4% | –
CCCCCO [1-pentanol] | – | – | – | – | 57.1% | 63.3% | 83.4% | –
CC(C)(C)CCO [3,3-dimethylbutanol] | – | – | – | – | 81.7% | 84.8% | 98.2% | –
CC(C)CCO [3-methylbutanol] | – | – | – | – | 67.6% | 72.4% | 94.3% | –
CCCCCCCCO [1-octanol (control), 1-octanol, reference compound] | – | – | – | – | 0.9% | 69.8% | 1.8% | –
C=C(C#N)C(=O)OCCc1ccccc1 [2-PECA, 2-phenylethyl cyanoacrylate] | dissolves | dissolves | – | dissolves | – | – | – | –
C=C(C#N)C(=O)OC(CC)CCCC (stereo not drawn) [3-HPCA, 3-heptyl cyanoacrylate] | Soluble | Soluble | Partially | Insoluble | – | – | – | –
C=C(C#N)C(=O)OCCC(C)(C)C [3,3-DMBCA, 3,3-dimethyl-1 butyl cyanoacrylate] | Soluble | Soluble | Insoluble | Insoluble | – | – | – | –
CCCCCC(C)O (stereo not drawn) [2-heptanol] | – | – | – | – | 50.7% | 73.9% | 81.1% | –
